Reference: patent US5684005A, “Pharmacologically active CNS compounds” (Glaxo Wellcome Inc., priority 1988, dated 1997)

Assays:
[1] = Duration of action / clearance from central nervous system; settings: in words
[2] = tested on: release of glutamate; settings: in words, literature; cited from earlier work
[3] = tested on: release of aspartate; settings: in words, literature; cited from earlier work

CN1CCN(c2nc(N)c(-c3cc(Cl)cc(Cl)c3Cl)c(C(F)(F)F)n2)CC1 [Example 1, 4-Amino-2-(4-methylpiperazin-1-yl)-5-(2,3,5-trichlorophenyl)-6-trifluoromethylpyrimidine]
duration of action [1]: long acting

COCc1nc(N)nc(N)c1-c1cc(Cl)cc(Cl)c1Cl [Example 2, 2,4-Diamino-5-(2,3,5-trichlorophenyl)-6-methoxymethyl pyrimidine]
duration of action [1]: short acting

CN1CCN(c2ncc(-c3cc(Cl)cc(Cl)c3Cl)c(N)n2)CC1.CS(=O)(=O)O [Example 3, 4-Amino-2-(4-methylpiperazin-1-yl)-5-(2,3,5-trichlorophenyl) pyrimidine mesylate]
duration of action [1]: long acting

Nc1nc(N)c(-c2cc(Cl)cc(Cl)c2Cl)c(C(F)(F)F)n1 [Example 4, 2,4-Diamino-5-(2,3,5-trichlorophenyl)-6-trifluoromethyl pyrimidine]
duration of action [1]: long acting

Nc1nnc(-c2cccc(Cl)c2Cl)c(N)n1 [lamotrigine, 3,5-diamino-6-(2,3-dichlorophenyl)-1,2,4-triazine]
inhibition of glutamate release [2]: shown to inhibit the release | inhibition of aspartate release [3]: shown to inhibit the release
